Reference: US9302999B2, “Substituted triazoles as herbicides” (E. I. DU PONT DE NEMOURS AND COMPANY, priority 2012, dated 2016)

How the values were obtained:
Format in all cases: in vivo
[1] = tested on: ducksalad (Heteranthera limosa); experiment: Test B flooded paddy: ducksalad; details: Flood; 250 g ai/ha; applied to paddy water at 2-leaf stage; visually evaluated after 13 to 15 days
In short: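 Response scored visually, 0–100 relative to controls, 13–15 days after the compound was applied into paddy water; plants were at the 2-leaf stage in pots kept flooded to 3 cm.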

[2] = tested on: crabgrass, large (large crabgrass, Digitaria sanguinalis); experiment: Test A pre-/postemergence: crabgrass, large
In short: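 Pre: directed soil spray after planting in loam + sand. Post: same formulation (non-phytotoxic solvent + surfactant) on 1–2-leaf plants, 2–10 cm. Greenhouse ~10 d; visual injury 0–100 vs untreated.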

[3] = tested on: common (oilseed) sunflower (Helianthus annuus); experiment: Test C pre-/postemergence: sunflower; details: Preemergence
In short: (§1)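 Preemergence on seeds in loam/sand, postemergence on 2–18 cm (1–4-leaf) plants in peat-based medium; compounds in non-phytotoxic solvent with surfactant. After 13–15 days in greenhouse, visual rating versus controls, 0 (no effect) to 100 (complete control).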

[4] = tested on: barley, winter (winter barley, Hordeum vulgare); experiment: Test D pre-/postemergence: barley, winter
In short: (§2)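 Visual 0–100 rating versus untreated controls (0 no effect, 100 complete control), taken 14 to 21 days after treatment in a controlled growth environment. Preemergence: silt loam soil. Postemergence: peat moss/vermiculite medium, plants 2 to 18 cm, 1- to 4-leaf stage. Solvent mixture with surfactant.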

[5] = tested on: soybean (Glycine max); experiment: Test C pre-/postemergence: soybean
In short: as §1

[6] = tested on: barley, spring (spring barley, Hordeum vulgare); experiment: Test D pre-/postemergence: barley, spring
In short: as §2

[7] = Postemergence, 31 g ai/ha, scale 0 to 100 (0 no effect, 100 complete control)
[8] = Postemergence, 62 g ai/ha, scale 0 to 100 (0 no effect, 100 complete control)
[9] = Postemergence, 125 g ai/ha, scale 0 to 100, 0 no effect, 100 complete control
[10] = Postemergence, 250 g ai/ha, scale 0 to 100 (0 no effect, 100 complete control)
[11] = Postemergence, 16 g ai/ha, scale 0 to 100
[12] = Preemergence, 16 g ai/ha, scale 0 to 100 (0 no effect, 100 complete control)
[13] = Preemergence, 31 g ai/ha, scale 0 to 100 (0 no effect, 100 complete control)
[14] = Preemergence, 62 g ai/ha, scale 0 to 100
[15] = Preemergence, 125 g ai/ha, scale 0 to 100
[16] = Preemergence, 250 g ai/ha, scale 0 to 100

CCOc1nn(-c2ccc(F)cc2)nc1Cc1ccnc(C(F)F)c1 [Compound 195]
Plant response rating, Ducksalad (0 to 100 scale, 0 is no effect, 100 is complete control) [1]: 100 | Plant response rating, Crabgrass, Large ([2]; Postemergence, 125 g ai/ha, 0 to 100 scale, 0 is no effect, 100 is complete control): 90 | Crabgrass, Large plant response rating ([2]; Postemergence, 500 g ai/ha, 0 to 100 scale, 0 is no effect, 100 is complete control): 90 | Plant response rating, Crabgrass, Large ([2]; Preemergence, 125 g ai/ha, 0 to 100 scale where 0 is no effect and 100 is complete control): 100 | Plant response rating, Crabgrass, Large ([2]; Preemergence, 500 g ai/ha, 0 to 100 scale (0 no effect, 100 complete control)): 100 | Plant response rating, Sunflower ([3]; 31 g ai/ha, scale 0 (no effect) to 100 (complete control)): 0 | Plant response rating, Sunflower ([3]; 62 g ai/ha, scale of 0 to 100, 0 is no effect, 100 is complete control): 15 | Plant response rating, Sunflower ([3]; 125 g ai/ha, scale 0 to 100, 0 no effect, 100 complete control): 15 | Plant response rating, Sunflower ([3]; 250 g ai/ha, scale 0 to 100, 0 no effect, 100 complete control): 20 | Plant response rating: Barley, Winter [4, 7]: 10 | Plant response rating: Barley, Winter [4, 8]: 15 | Plant response rating: Barley, Winter [4, 9]: 30 | Plant response rating: Barley, Winter [4, 10]: 45 | Plant response rating, Barley, Winter [4, 11]: 0 | Plant response rating, Barley, Winter [4, 12]: 0 | Plant response rating, Barley, Winter [4, 13]: 0 | Plant response rating, Barley, Winter [4, 14]: 0 | Plant response rating, Barley, Winter [4, 15]: 0 | Plant response rating, Barley, Winter [4, 16]: 20 | Plant response rating, Soybean [5, 7]: 40 | Plant response rating, Soybean [5, 8]: 40 | Plant response rating, Soybean [5, 9]: 65 | Plant response rating, Soybean [5, 10]: 65 | Plant response rating, Soybean ([5]; Preemergence, 31 g ai/ha, scale 0 (no effect) to 100 (complete control)): 0 | Plant response rating, Soybean ([5]; Preemergence, 62 g ai/ha, scale of 0 to 100, 0 is no effect, 100 is complete control): 0 | Plant response rating, Soybean ([5]; Preemergence, 125 g ai/ha, scale 0 to 100, 0 no effect, 100 complete control): 0 | Plant response rating, Soybean ([5]; Preemergence, 250 g ai/ha, scale 0 to 100, 0 no effect, 100 complete control): 25 | Plant response rating: Barley, Spring [6, 7]: 15 | Plant response rating: Barley, Spring [6, 8]: 20 | Plant response rating: Barley, Spring [6, 9]: 30 | Plant response rating: Barley, Spring [6, 10]: 40 | Plant response rating, Barley, Spring [6, 11]: 10 | Plant response rating, Barley, Spring [6, 12]: 0 | Plant response rating, Barley, Spring [6, 13]: 0 | Plant response rating, Barley, Spring [6, 14]: 0 | Plant response rating, Barley, Spring [6, 15]: 0 | Plant response rating, Barley, Spring [6, 16]: 30
